Earlier results in patent publication US8071619B2, “Injectable liquid formulation of paracetamol” (priority 2003, dated 2011).

Settings: aqueous solution; K. T. Koshy et al., 1961

pH at which the rate of degradation of paracetamol is minimal: ~6
SMILES: CC(=O)Nc1ccc(O)cc1 [paracetamol, N-(4-hydroxy-phenyl)acetamide]
